{"source": "patent US7101878B1", "about": "(Agouron Pharmaceuticals, Inc., priority 1998, dated 2006)", "key": {"[1]": {"system": "LH levels in castrated rats", "assay": "Castrated male rat model, LH suppression", "assay_type": "in vivo", "summary_of_the_method": "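Castrated male Sprague-Dawley rats, catheterised, given vehicle or compound iv, im, ip, sc or po after basal sampling (one protocol: 10 mg/kg iv in 10% DMSO/10% cremophor/saline). Blood drawn at multiple times up to 240 min. Serum or plasma LH measured by coated-tube immunoradiometric assay.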"}, "[2]": {"assay": "Metabolism rate, pmol/min/mg at 1 μM, dog", "assay_type": "in vitro ADME", "settings": "1 μM compound"}, "[3]": {"assay": "Intact male rat, testosterone suppression", "assay_type": "in vivo", "settings": "male, Sprague-Dawley, rat, plasma, intramuscular; 100 mg/kg im*, 7 days; read-out: Range of Plasma Conc.", "description": "(§1) Testosterone is a hormone regulated by the hypothalamic-pituitary-gonadal axis. GnRH is secreted in pulses from the hypothalamus and stimulates the anterior pituitary gland to release gonadotropic hormones LH and FSH. Testosterone is produced when the testes are stimulated by LH. The quantity of testosterone secreted increases approximately in direct proportion to the amount of LH available (Guyton, 1986).\n(§2) Male Sprague-Dawley (250-275 g) rats were single-housed and allowed to acclimate for 1 week prior to study. On study day animals were dosed with vehicle or test compound by various routes of administration, including ip, sc, or po. Blood samples were obtained via cardiac puncture under halothane anesthesia from individual animals at predetermined time points post treatment. Blood samples were drawn into heparin containing tubes. Blood was centrifuged immediately, plasma collected and stored in −20° freezer until assayed. Plasma samples were analyzed using DSL-4000 ACTIVE Testosterone coated-tube raduioimmunoassay kit from Diagnostic Systems Laboratories, Inc.\n(§3) Male Sprague-Dawley (250-275 g) rats were single-housed and allowed to acclimate for 1 week prior to study. We developed a technique to allow for repeated sampling from the jugular vein by using microrenathane (MRE) catheters implanted 7 days prior to study. Details of the surgical procedure have been described previously {Harms and Ojeda, 1974}. On study day, animals were allowed to acclimate to the procedure room while residing in their home cage. Basal blood samples were drawn from all animals. Immediately following basal sampling, vehicle or test compounds were administered by various routes. The routes of administration employed were intravenous (iv), intramuscular (im), and oral (po). Blood samples were drawn into heparin containing tubes at multiple time points post treatment. Blood was centrifuged immediately, plasma collected and stored in −20° freezer until assayed. Plasma samples were analyzed using DSL-4000 ACTIVE Testosterone coated-tube raduioimmunoassay kit from Diagnostic Systems Laboratories, Inc.\n(§4) Male Sprague-Dawley (250-275 g) rats were double-housed and allowed to acclimate for 1 week prior to study. Daily vehicle treatments were administered either, im, sc, or po between 8:00 and 9:00 am for seven days. On day 8 between 8:00 and 9:00 am, blood samples were drawn via cardiac puncture under halothane anesthesia. The procedure was complete in 45-60 seconds. Over the next 7 days one groups of animals continued to receive vehicle treatments while another group of animals received no treatment. Samples were collected as described above following the 7th day of this treatment regimen. Testosterone levels were not different between vehicle treated animals and untreated animals.\n(§5) Daily im dosing of Compound 134 (100 mg/kg) or vehicle was performed between 8:00 and 9:00 am for seven days. Samples were collected as described above following the 7th day of treatment.\n(§6) All blood samples were collected in heparin containing tubes. Blood was centrifuged immediately, plasma collected and stored in −20° freezer until assayed the next day. Plasma samples were analyzed using DSL-4000 ACTIVE Testosterone coated-tube raduioimmunoassay kit from Diagnostic Systems Laboratories, Inc."}, "[4]": {"system": "testosterone levels in intact male rats", "assay": "Intact male rat, testosterone suppression", "assay_type": "in vivo", "description": "as §1, §2, §3, §4, §5, §6"}}}
{"smiles": "COc1cc(OC)c(NC(=O)c2ccc(Cc3cc4c(cc3C)C(C)(C)CCC4(C)C)o2)c(OC)c1", "note": "[Compound 134]", "values": [{"measurement": "% Max LH Suppression", "setting": "[1]; 1.0 mg/kg iv", "result": 24, "unit": "%"}, {"measurement": "time of % Max LH Suppression", "setting": "[1]; 1.0 mg/kg iv", "result": 0.5, "unit": "h"}, {"measurement": "% Max LH Suppression", "setting": "[1]; 5.0 mg/kg iv", "result": 70, "unit": "%"}, {"measurement": "time of % Max LH Suppression", "setting": "[1]; 5.0 mg/kg iv", "result": 0.5, "unit": "h"}, {"measurement": "% Max LH Suppression", "setting": "[1]; 10 mg/kg iv", "result": 100, "unit": "%"}, {"measurement": "time of % Max LH Suppression", "setting": "[1]; 10 mg/kg iv", "result": 0.5, "unit": "h"}, {"measurement": "≧50% Suppression Duration", "setting": "[1]; 10 mg/kg iv", "result": 2, "unit": "h"}, {"measurement": "% Max LH Suppression", "setting": "[1]; 20 mg/kg im", "result": 73, "unit": "%"}, {"measurement": "LH in CX rats", "setting": "[1]; 20 mg/kg im", "result": "suppresses LH"}, {"measurement": "time of % Max LH Suppression", "setting": "[1]; 20 mg/kg im", "result": 2, "unit": "h"}, {"measurement": "≧50% Suppression Duration", "setting": "[1]; 20 mg/kg im", "result": 8, "unit": "h"}, {"measurement": "% Max LH Suppression", "setting": "[1]; 20 mg/kg ip", "result": 80, "unit": "%"}, {"measurement": "time of % Max LH Suppression", "setting": "[1]; 20 mg/kg ip", "result": 2, "unit": "h"}, {"measurement": "≧50% Suppression Duration", "setting": "[1]; 20 mg/kg ip", "result": 4, "unit": "h"}, {"measurement": "% Max LH Suppression", "setting": "[1]; 20 mg/kg po", "result": 62, "unit": "%"}, {"measurement": "time of % Max LH Suppression", "setting": "[1]; 20 mg/kg po", "result": 4, "unit": "h"}, {"measurement": "≧50% Suppression Duration", "setting": "[1]; 20 mg/kg po", "result": 4, "unit": "h"}, {"measurement": "% Max LH Suppression", "setting": "[1]; 20 mg/kg sc", "result": 53, "unit": "%"}, {"measurement": "time of % Max LH Suppression", "setting": "[1]; 20 mg/kg sc", "result": 8, "unit": "h"}, {"measurement": "≧50% Suppression Duration", "setting": "[1]; 20 mg/kg sc", "result": 8, "unit": "h"}, {"measurement": "% Max LH Suppression", "setting": "[1]; 100 mg/kg im", "result": 98, "unit": "%"}, {"measurement": "time of % Max LH Suppression", "setting": "[1]; 100 mg/kg im", "result": "2 to 24", "unit": "h"}, {"measurement": "≧50% Suppression Duration", "setting": "[1]; 100 mg/kg im", "result": 24, "unit": "h"}, {"measurement": "% Max LH Suppression", "setting": "[1]; 100 mg/kg ip", "result": 98, "unit": "%"}, {"measurement": "time of % Max LH Suppression", "setting": "[1]; 100 mg/kg ip", "result": 4, "unit": "h"}, {"measurement": "≧50% Suppression Duration", "setting": "[1]; 100 mg/kg ip", "result": 8, "unit": "h"}, {"measurement": "% Max LH Suppression", "setting": "[1]; 100 mg/kg po", "result": 84, "unit": "%"}, {"measurement": "time of % Max LH Suppression", "setting": "[1]; 100 mg/kg po", "result": 4, "unit": "h"}, {"measurement": "≧50% Suppression Duration", "setting": "[1]; 100 mg/kg po", "result": 8, "unit": "h"}, {"measurement": "% Max LH Suppression", "setting": "[1]; 100 mg/kg sc", "result": 80, "unit": "%"}, {"measurement": "time of % Max LH Suppression", "setting": "[1]; 100 mg/kg sc", "result": 6, "unit": "h"}, {"measurement": "≧50% Suppression Duration", "setting": "[1]; 100 mg/kg sc", "result": 8, "unit": "h"}, {"measurement": "LH in CX rats", "setting": "[1]; 1.0, 5.0 & 10 mg/kg, iv", "result": "dose-dependent suppression of LH"}, {"measurement": "LH in CX rats", "setting": "[1]; 20 or 100 mg/kg, ip", "result": "suppresses LH"}, {"measurement": "Dog pmol/min/mg 1 μM", "setting": "[2]", "result": 2159, "unit": "pmol/min/mg"}, {"measurement": "concentration at 7 days", "setting": "[3]", "result": 1300, "unit": "nM"}, {"measurement": "% Testosterone suppression", "setting": "[4]; 20 mg/kg ip", "result": 36, "unit": "%"}, {"measurement": "Range of Plasma Conc.", "setting": "[4]; 20 mg/kg ip", "result": 0.2, "unit": "µM"}, {"measurement": "Suppression Duration", "setting": "[4]; 20 mg/kg ip", "result": 4, "unit": "h"}, {"measurement": "time of % Testosterone suppression", "setting": "[4]; 20 mg/kg ip", "result": 4, "unit": "h"}, {"measurement": "Range of Plasma Conc.", "setting": "[4]; 20 mg/kg po, @ 1 hr", "result": "1.1 @ 1 hr μM"}, {"measurement": "Range of Plasma Conc.", "setting": "[4]; 20 mg/kg po, @ 2 hr", "result": "0.15 @ 2 hr μM"}, {"measurement": "Range of Plasma Conc.", "setting": "[4]; 20 mg/kg po, @ 4 hr", "result": "0.17 @ 4 hr μM"}, {"measurement": "% Testosterone suppression", "setting": "[4]; 50 mg/kg po", "result": 75, "unit": "%"}, {"measurement": "Suppression Duration", "setting": "[4]; 50 mg/kg po", "result": 8, "unit": "h"}, {"measurement": "time of % Testosterone suppression", "setting": "[4]; 50 mg/kg po", "result": 4, "unit": "h"}, {"measurement": "% Testosterone suppression", "setting": "[4]; 100 mg/kg im*, 7 days", "result": 80, "unit": "%"}, {"measurement": "Suppression Duration", "setting": "[4]; 100 mg/kg im*, 7 days", "result": 12, "unit": "h"}, {"measurement": "time of % Testosterone suppression", "setting": "[4]; 100 mg/kg im*, 7 days", "result": 12, "unit": "h"}, {"measurement": "% Testosterone suppression", "setting": "[4]; 100 mg/kg po", "result": 80, "unit": "%"}, {"measurement": "Suppression Duration", "setting": "[4]; 100 mg/kg po", "result": 12, "unit": "h"}, {"measurement": "time of % Testosterone suppression", "setting": "[4]; 100 mg/kg po", "result": 6, "unit": "h"}, {"measurement": "% Testosterone suppression", "setting": "[4]; 100 mg/kg sc", "result": 60, "unit": "%"}, {"measurement": "Range of Plasma Conc.", "setting": "[4]; 100 mg/kg sc", "result": 0.13, "unit": "µM"}, {"measurement": "Suppression Duration", "setting": "[4]; 100 mg/kg sc", "result": 24, "unit": "h"}, {"measurement": "time of % Testosterone suppression", "setting": "[4]; 100 mg/kg sc", "result": 24, "unit": "h"}, {"measurement": "testosterone levels", "setting": "[4]; 7 days of repeated treatment, 100 mg/kg im daily, p<0.05", "result": "significantly suppressed testosterone levels"}, {"measurement": "testosterone levels", "setting": "[4]; oral gavage, highest dose, 12 hour time course and 24 hour time point", "result": "suppressed testosterone throughout the course of the study"}]}
